Measurements taken from ChEMBL document CHEMBL4371019, “Sanguiin H-11 from Sanguisorbae radix protects HT22 murine hippocampal cells against glutamate-induced death” (2019).
Values belong to the compound of their own block, whether it stands above or below them. The source made the active and inactive calls. No cut-off for these calls is given here.

Assays:
HT-22 [1] = assay: Neuroprotective activity against glutamate-induced neuronal cell death in mouse HT22 cells assessed as increase in cell viability at 0.5 to 5 uM after 24 hrs by MTT assay; type: functional, cell-based
HT-22 [2] = assay: Neuroprotective activity against glutamate-induced neuronal cell death in mouse HT22 cells assessed as increase in cell viability at 20 to 50 uM after 24 hrs by MTT assay; type: functional, cell-based
[3] = target: Mitogen-activated protein kinase 1 and 3 (ERK2 and ERK1) (Mus musculus) (UniProt P63085+Q63844); assay: Inhibition of glutamate-induced ERK1/2 phosphorylation in mouse HT22 cells at 10 to 20 after 8 hrs by Western blot analysis; type: cell-based
Chain of Mitogen-activated protein kinase 1 and 3 (ERK2 and ERK1) (Mus musculus) (P63085 whole entry, looked up): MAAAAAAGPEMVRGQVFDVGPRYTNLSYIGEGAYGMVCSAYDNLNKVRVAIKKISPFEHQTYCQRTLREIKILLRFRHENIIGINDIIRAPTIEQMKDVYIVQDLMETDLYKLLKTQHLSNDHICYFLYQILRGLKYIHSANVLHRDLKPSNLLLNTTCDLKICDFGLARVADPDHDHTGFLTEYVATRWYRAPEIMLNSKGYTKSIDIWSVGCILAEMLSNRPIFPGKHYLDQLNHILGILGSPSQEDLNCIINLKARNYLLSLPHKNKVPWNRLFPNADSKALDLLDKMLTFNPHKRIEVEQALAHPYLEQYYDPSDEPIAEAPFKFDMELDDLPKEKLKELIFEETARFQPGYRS
Chain of Mitogen-activated protein kinase 1 and 3 (ERK2 and ERK1) (Mus musculus) (Q63844 whole entry, looked up): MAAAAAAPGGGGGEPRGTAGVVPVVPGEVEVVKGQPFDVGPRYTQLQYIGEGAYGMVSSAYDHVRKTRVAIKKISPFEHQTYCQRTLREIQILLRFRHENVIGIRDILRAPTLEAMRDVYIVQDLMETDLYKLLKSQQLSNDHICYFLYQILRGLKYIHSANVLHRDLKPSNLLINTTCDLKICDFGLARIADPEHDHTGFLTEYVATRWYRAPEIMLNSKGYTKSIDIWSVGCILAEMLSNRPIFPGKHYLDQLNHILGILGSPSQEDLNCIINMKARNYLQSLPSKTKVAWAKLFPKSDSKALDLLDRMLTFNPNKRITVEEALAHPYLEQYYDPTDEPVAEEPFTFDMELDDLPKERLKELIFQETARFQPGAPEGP

[4] = Antioxidant activity assessed as DPPH free radical scavenging activity up to 15 uM incubated for 30 mins; type: functional
HT-22 [5] = assay: Neuroprotective activity against glutamate-induced neuronal cell death in mouse HT22 cells assessed as reduction in intracellular calcium level at 10 to 20 uM after 8 hrs by fluorescence microscopic analysis; type: functional, cell-based
[6] = target: MAP kinase p38 (Mus musculus) (UniProt P47811+O08911+Q9WUI1+Q9Z1B7); assay: Inhibition of glutamate-induced p38 MAPK phosphorylation in mouse HT22 cells at 10 to 20 after 8 hrs by Western blot analysis; type: cell-based
Mus musculus = species on record: Mus musculus; assay: Inhibition of glutamate-induced JNK phosphorylation in mouse HT22 cells at 10 to 20 after 8 hrs by Western blot analysis; type: cell-based
HT-22 [7] = assay: Neuroprotective activity against glutamate-induced neuronal cell death in mouse HT22 cells at 10 to 20 uM by microscopic analysis; type: functional, cell-based
HT-22 [8] = assay: Antioxidant activity in mouse HT22 cells assessed as reduction in glutamate-induced increase in intracellular reactive oxygen species level at 10 to 20 uM after 8 hrs by H2DCFDA staining based fluorescence microscopic analysis; type: functional, cell-based
HT-22 [9] = assay: Inhibition of glutamate-induced apoptosis in mouse HT22 cells assessed as apoptotic cells at 10 uM after 12 hrs by AlexaFluor 488-Annexin V/propidium iodide staining-based assay (reference value: 54%); type: functional; conditions: HT-22, 12 h
HT-22 [10] = assay: Inhibition of glutamate-induced apoptosis in mouse HT22 cells assessed as apoptotic cells at 20 uM after 12 hrs by AlexaFluor 488-Annexin V/propidium iodide staining-based assay (reference value: 54%); type: functional; conditions: HT-22, 12 h

SMILES: CC(=O)N[C@@H](CS)C(=O)O
Activity (HT-22 [1]): Active

inhibition [3]: Active
inhibition [6]: Active
SMILES: O=C(O[C@@H]1O[C@@H]2COC(=O)c3cc(O)c(O)c(O)c3-c3c(cc(O)c(O)c3O)C(=O)O[C@H]2[C@@H]2OC(=O)c3cc(O)c(O)c(O)c3-c3c(cc(O)c(O)c3O)C(=O)O[C@@H]12)c1cc(O)c(O)c(O)c1
Activity (HT-22 [2]): Active
Activity [4]: Active
Activity (HT-22 [5]): Active
inhibition (Mus musculus): Active
Activity (HT-22 [7]): Active
Activity (HT-22 [8]): Active
inhibition at 10 µM (HT-22 [9]): 12.7%
inhibition at 20 µM (HT-22 [10]): 8.5%
